# Publication PMC9606955, “In Vitro Activity of Essential Oils Distilled from Colombian Plants against Candida auris and Other Candida Species with Different Antifungal Susceptibility Profiles” (Molecules, 2022)
# What was measured:
# Candida spp. [1] = assay: MIC, CLSI M27 broth microdilution, all Candida spp. of Tables 3 and 4 together; assay type: cell-based; settings: over all strains of Table 3 and Table 4
# From the text: (§1) The fungal strains used in this study were C. albicans ATCC 10231, C. albicans ATCC 64550, C. parapsilosis ATCC 22019, C. tropicalis ATCC 750, C. tropicalis ATCC 200956 (resistant to azoles and AMB), C. glabrata LMDM 34 (resistant to echinocandins), C. metapsilosis MUM 15.12, C. orthopsilosis MUM 17.13, C. lusitaniae MUM 17.08, C. krusei ATCC 6258 (Issatchenkia orientalis ATCC 6258), and C. auris CDC B11903. Additionally, nine clinical isolates were included: C. parapsilosis Synlab 406 (FLC-resistant) and eight C. auris isolates identified by MALDI-TOF MS (Bruker Daltonics, Bremen, Germany) according to Zhao et al.. These yeasts were cultured on Sabouraud Dextrose Agar (SDA; Sigma-Aldrich, St. Louis, MO, USA) for 24 h at 35 °C.
# (§2) Antifungal susceptibility testing was performed according to Clinical and Laboratory Standards Institute M27, 4th Edition (CLSI standard M27, 4th Edition). […] MICs were visually determined at the lowest concentration that produced visual inhibition compared to the growth control. […] The results were expressed as geometric means (GM) and ranges. As an antifungal susceptibility testing control, the activity of ITC and AMB against the reference strains C. krusei ATCC 6258 and C. parapsilosis ATCC 22019 was evaluated in all experiments following the CLSI standard M27, 4th Edition. […]
# [2] = tested on: C. tropicalis ATCC 200956; assay: MIC, CLSI M27 broth microdilution; assay type: cell-based, Candida tropicalis; settings: C. tropicalis ATCC 200956, EOs and terpenes
# From the text: as §1
# (§3) Antifungal susceptibility testing was performed according to Clinical and Laboratory Standards Institute M27, 4th Edition (CLSI standard M27, 4th Edition). Some modifications were applied for evaluation of the antifungal activity of EOs and terpenes. Initially, a screening was carried out to determine the antifungal activity of the EOs and of commercial terpenes. Stock concentrations of EOs and terpenes were prepared at 512 µg/mL and an inoculum of 2.5 × 10^3 CFU/mL of each yeast was prepared in RPMI 1640-MOPS (Sigma- Aldrich St. Louis, MO, USA). Thereafter, 100 µL of each stock solution of EOs or terpenes was dispensed in 96-well microdilution plates (Corning®, Costar®, NY, USA) and 100 µL of each yeast inoculum was added. […] Microdilution plates were incubated at 35 °C and, after 24 h, the presence or absence of growth was visually checked using a manual mirror viewer and then compared with the amount of growth in the control (no EO or terpene). Compounds able to inhibit yeast growth were tested to determine the minimal inhibitory concentration (MIC) as follows: 100 µL of 10 two-fold dilutions of the EOs or commercial terpenes was dispensed in 96-well microplates and the yeast inoculum was added. Final concentrations of the EOs or terpenes ranged from 0.5 µg/mL to 256 µg/mL. Microdilution plates were incubated at 35 °C for 24 h. MICs were visually determined at the lowest concentration that produced visual inhibition compared to the growth control. The assays were performed at least three times in duplicate on different days. The results were expressed as geometric means (GM) and ranges. As an antifungal susceptibility testing control, the activity of ITC and AMB against the reference strains C. krusei ATCC 6258 and C. parapsilosis ATCC 22019 was evaluated in all experiments following the CLSI standard M27, 4th Edition. It was mandatory that the MIC values remained in the accepted range.
# [3] = tested on: C. orthopsilosis MUM 17.13; assay: MIC, CLSI M27 broth microdilution; assay type: cell-based, Candida orthopsilosis; settings: C. orthopsilosis MUM 15.12 (Table 3), EOs and terpenes, 24 h, top concentration 256 µg/mL
# From the text: as §1, §3
# C. lusitaniae MUM 17.08 = assay: MIC, CLSI M27 broth microdilution; assay type: cell-based, Candida lusitaniae; settings: C. lusitaniae MUM 17.08, EOs and terpenes
# From the text: as §1, §3
# [4] = tested on: C. parapsilosis Synlab 406; assay: MIC, CLSI M27 broth microdilution; assay type: cell-based, Candida parapsilosis; settings: C. parapsilosis Synlab 406, EOs and terpenes
# From the text: as §1, §3
# C. auris = assay: MIC, CLSI M27 broth microdilution, several C. auris strains together; assay type: cell-based, Candida auris; settings: over all C. auris strains of Table 4
# From the text: as §1, §2
# C. krusei ATCC 6258 = assay: MIC, CLSI M27 broth microdilution; assay type: cell-based, Candida krusei; settings: C. krusei ATCC 6258; EOs and terpenes; 24 h; top concentration 256 µg/mL
# From the text: as §1, §3
# C. auris Ca 46 = assay: MIC, CLSI M27 broth microdilution; assay type: cell-based, Candida auris; settings: C. auris Ca 46, EOs and terpenes, 24 h, top concentration 256 µg/mL
# From the text: as §1, §3
# C. auris Ca 41 = assay: MIC, CLSI M27 broth microdilution; assay type: cell-based, Candida auris; settings: C. auris Ca 41, EOs and terpenes, 24 h, top concentration 256 µg/mL
# From the text: as §1, §3
# C. auris Ca 1 = assay: MIC, CLSI M27 broth microdilution; assay type: cell-based, Candida auris; settings: C. auris Ca 1, EOs and terpenes, 24 h, top concentration 256 µg/mL
# From the text: as §1, §3
# C. auris Ca 17 = assay: MIC, CLSI M27 broth microdilution; assay type: cell-based, Candida auris; settings: C. auris Ca 17, EOs and terpenes, 24 h, top concentration 256 µg/mL
# From the text: as §1, §3
# C. auris Ca 32 = assay: MIC, CLSI M27 broth microdilution; assay type: cell-based, Candida auris; settings: C. auris Ca 32, EOs and terpenes
# From the text: as §1, §3
# C. auris CDC B11903 = assay: MIC, CLSI M27 broth microdilution; assay type: cell-based, Candida auris; settings: C. auris CDC B11903, EOs and terpenes, 24 h, top concentration 256 µg/mL
# From the text: as §1, §3
# C. auris Ca 45 = assay: MIC, CLSI M27 broth microdilution; assay type: cell-based, Candida auris; settings: C. auris Ca 45, EOs and terpenes, 24 h, top concentration 256 µg/mL
# From the text: as §1, §3
# C. auris Ca 13 = assay: MIC, CLSI M27 broth microdilution; assay type: cell-based, Candida auris; settings: C. auris Ca 13, EOs and terpenes
# From the text: as §1, §3
# C. auris Ca 9 = assay: MIC, CLSI M27 broth microdilution; assay type: cell-based, Candida auris; settings: C. auris Ca 9, EOs and terpenes
# From the text: as §1, §3
# [5] = tested on: C. metapsilosis MUM 15.12; assay: MIC, CLSI M27 broth microdilution; assay type: cell-based, Candida metapsilosis; settings: C. metapsilosis MUM 17.13 (Table 3), EOs and terpenes, 24 h, top concentration 256 µg/mL
# From the text: as §1, §3
# Candida spp. [6] = assay: Screening of antifungal activity at 256 µg/mL against twenty strains; assay type: cell-based; settings: screening at 256 µg/mL
# From the text: as §1
# Antifungal susceptibility testing was performed according to Clinical and Laboratory Standards Institute M27, 4th Edition (CLSI standard M27, 4th Edition). Some modifications were applied for evaluation of the antifungal activity of EOs and terpenes. Initially, a screening was carried out to determine the antifungal activity of the EOs and of commercial terpenes. Stock concentrations of EOs and terpenes were prepared at 512 µg/mL and an inoculum of 2.5 × 10^3 CFU/mL of each yeast was prepared in RPMI 1640-MOPS (Sigma- Aldrich St. Louis, MO, USA). Thereafter, 100 µL of each stock solution of EOs or terpenes was dispensed in 96-well microdilution plates (Corning®, Costar®, NY, USA) and 100 µL of each yeast inoculum was added. […] MICs were visually determined at the lowest concentration that produced visual inhibition compared to the growth control. […] The results were expressed as geometric means (GM) and ranges. As an antifungal susceptibility testing control, the activity of ITC and AMB against the reference strains C. krusei ATCC 6258 and C. parapsilosis ATCC 22019 was evaluated in all experiments following the CLSI standard M27, 4th Edition. […]
# HaCaT cell line = assay: Cytotoxicity, MTT assay; settings: MTT, 24 h treatment, HaCaT keratinocytes
# Procedure: (§4) Cells were cultured in Dulbecco’s Modified Eagle Medium (DMEM; Sigma-Aldrich, St. Louis, MO, USA) supplemented with 10% fetal bovine serum (Invitrogen, Carlsbad, CA, USA), 1% penicillin, streptomycin, and neomycin (Invitrogen, Carlsbad, CA, USA), and 1% L-glutamine (Invitrogen, Carlsbad, CA, USA) at 37 °C in a humidified atmosphere of 5% CO2. […] Afterwards, the culture medium was removed and 3-(4.5-dimethylthiazol-2-yl)-2.5-diphenyltetrazolium bromide (MTT) (Sigma-Aldrich, St. Louis, MO, USA) at 5 mg/mL was added at 37 °C for 2 h. Subsequently, DMSO was added to dissolve the formazan crystals. Finally, the absorbances were measured with a Multiskan SkyHigh Microplate Spectrophotometer (Thermo Fisher Scientific, Waltham, MA, USA) at λ = 570 nm. The CC50 values were obtained by linear regression analysis with concentration–response curves, which were performed with absorbance data using GraphPad Prism software (Prism 9.3.0, San Diego, CA, USA). The assays were conducted at two separate times in triplicate. The data were expressed as means.
# in vitro = settings: human
# Procedure: as §4
# [7] = 24 h, top concentration 256 µg/mL
smiles,measurement,setting,value
"C=C(C)[C@H]1CC=C(C)CC1 [Limonene, limonene]",MIC Range,Candida spp. [1],16 to 64 µg/mL
same,GM MIC,[2]; [7],64 µg/mL
same,GM MIC,[3],16 µg/mL
same,Range MIC,C. lusitaniae MUM 17.08,16 to 32 µg/mL
same,GM MIC,C. lusitaniae MUM 17.08; [7],22.6 µg/mL
same,GM MIC,[4]; [7],64 µg/mL
same,MIC Range,C. auris,16 to 64 µg/mL
same,GM MIC,C. krusei ATCC 6258,32 µg/mL
same,GM MIC,C. auris Ca 46,16 µg/mL
same,GM MIC,C. auris Ca 41,16 µg/mL
same,GM MIC,C. auris Ca 1,64 µg/mL
same,GM MIC,C. auris Ca 17,64 µg/mL
same,Range MIC,C. auris Ca 32,16 to 32 µg/mL
same,GM MIC,C. auris Ca 32; [7],22.6 µg/mL
same,GM MIC,C. auris CDC B11903,64 µg/mL
same,GM MIC,C. auris Ca 45,16 µg/mL
same,Range MIC,C. auris Ca 13,16 to 32 µg/mL
same,GM MIC,C. auris Ca 13; [7],22.6 µg/mL
same,Range MIC,C. auris Ca 9,16 to 32 µg/mL
same,GM MIC,C. auris Ca 9; [7],22.6 µg/mL
same,GM MIC,[5],64 µg/mL
same,antifungal activity in screening,Candida spp. [6],active against all tested Candida spp.
same,HaCaT Cells Mean CC50,HaCaT cell line,400.5 µg/mL
"C=C(C)[C@@H]1CC=C(CO)CC1 [Perillyl alcohol, perillyl alcohol]",Range MIC,[2],128 to 256 µg/mL
same,MIC,"[2]; Candida tropicalis, ATCC200956, 24 h, top concentration 256 µg/mL, read-out: GM MIC",181 µg/mL
same,MIC,"[3]; Lodderomyces orthopsilosis, MUM17.13, read-out: GM MIC",256 µg/mL
same,Range MIC,C. lusitaniae MUM 17.08,128 to 256 µg/mL
same,MIC,"C. lusitaniae MUM 17.08; Clavispora lusitaniae, MUM17.08, 24 h, top concentration 256 µg/mL, read-out: GM MIC",181 µg/mL
same,Range MIC,[4],64 to 128 µg/mL
same,MIC,"[4]; Lodderomyces parapsilosis, SYNLAB406, 24 h, top concentration 256 µg/mL, read-out: GM MIC",90.5 µg/mL
same,CC50 at 24 h,in vitro,401 µg/mL
same,MIC,"C. auris Ca 46; Candidozyma auris, CA46, read-out: GM MIC",256 µg/mL
same,MIC,"C. auris Ca 41; Candidozyma auris, CA41, read-out: GM MIC",128 µg/mL
same,MIC,"C. auris Ca 1; Candidozyma auris, CA1, read-out: GM MIC",256 µg/mL
same,MIC,"C. auris Ca 17; Candidozyma auris, CA17, read-out: GM MIC",256 µg/mL
same,MIC,"C. auris Ca 32; Candidozyma auris, CA32, 24 h, top concentration 256 µg/mL, read-out: GM MIC",128 µg/mL
same,MIC,"C. auris CDC B11903; Candidozyma auris, CDCB11903, read-out: GM MIC",256 µg/mL
same,MIC,"C. auris Ca 45; Candidozyma auris, CA45, read-out: GM MIC",256 µg/mL
same,MIC,"C. auris Ca 13; Candidozyma auris, CA13, 24 h, top concentration 256 µg/mL, read-out: GM MIC",256 µg/mL
same,MIC,"C. auris Ca 9; Candidozyma auris, CA9, 24 h, top concentration 256 µg/mL, read-out: GM MIC",128 µg/mL
same,MIC,"[5]; Lodderomyces metapsilosis, MUM15.12, read-out: GM MIC",256 µg/mL
